pEC50, pIC50: −log10 of the molar value. Like-named read-outs stand apart in the source and are kept apart here.
Experiments:
[1] = test system: human myeloma cell lines (HMCLs); test: In vitro chemosensitivity assay (CellTiter-Glo cell viability); assay type: cell-based; details: single-agent
Text: A large panel of HMCLs representing innate sensitivity and resistance to PIs and IMiDs (similar to refractory disease) have been compiled, as well as >10 pairs of parental and clonally-derived PI/IMiD-resistant HMCLs (P vs R pairs; generated using dose escalation over a period of time) representing acquired or emerging drug resistance, and encompassing the broad spectrum of biological and genetic heterogeneity of myeloma (Mitra et al., 2017, Blood Cancer J., 7:e581). The human myeloma cell lines (HMCLs) were obtained as previously described (Mitra et al., 2017, Blood Cancer J., 7:e581). The clonally related acquired PI-resistant HMCLs were generated from parental cell lines by dose escalation of bortezomib using pulses of once-weekly bortezomib treatment as described previously (Mitra et al., 2016, Leukemia., 30:1094-1102). […]
HMCLs were treated with increasing concentrations of CLF, PIs (represented by Ix), and IMiDs (represented by Len) as single agents or in combination for 48 h, and cytotoxicity assays were performed using CellTiter-Glo® Luminescent cell viability assay (Promega Madison, WI). Luminescence was recorded in a Neo2 Microplate Reader (Biotek), and half-maximal inhibitory concentration (IC50) values were determined by calculating the nonlinear regression using the sigmoidal dose-response equation (variable slope). […]

[2] = test system: bone marrow-derived CD138+ primary myeloma cells (PMCs); test: Ex vivo direct-to-drug screening assay (CellTiter-Glo); assay type: cell-based; details: Homo sapiens, single-agent
Protocol: Bone marrow-derived CD138+ primary myeloma cells were obtained from patients (n=16) and used as ex vivo model systems. Written informed consent was received from participants prior to inclusion in the study. Participants have been identified by number, not by name. The primary samples were cultured as total bone marrow and put in culture to retain the patients' natural BM microenvironment. Cells of interest were CD138+-gated during analysis. The drugs were screened in a 7-point, 10-fold dilution, with the highest concentration at 10 μM, and incubated for 24 h. Anti-MM activity was assessed through cellular viability, evaluated with CellTiter-Glo®. The mid-point EC50, percentage of maximum inhibition was calculated using the TIBCO Spotfire® v.7.0.0 software, and the area under the curve (AUC) was calculated with the GraphPad Prism v.8 software (Bonolo de Campos et al., 2020, Blood Cancer J., 10:54).

[3] = test system: human myeloma cell lines (HMCLs); test: Drug synergy analysis (Calcusyn, Chou-Talalay combination index); assay type: cell-based; details: CLF in combination with PI or IMiD
Protocol: HMCLs were treated with increasing concentrations of CLF, PIs (represented by Ix), and IMiDs (represented by Len) as single agents or in combination for 48 h, and cytotoxicity assays were performed using CellTiter-Glo® Luminescent cell viability assay (Promega Madison, WI). Luminescence was recorded in a Neo2 Microplate Reader (Biotek), and half-maximal inhibitory concentration (IC50) values were determined by calculating the nonlinear regression using the sigmoidal dose-response equation (variable slope). The drug cytotoxicity data and IC50 values were used to compare response and to determine synergy by Calcusyn software (Biosoft; Chou-Talalay's CI theorem) (Chou, 2011, Am J Cancer Res, 1: 925-54). CI value <0.9 denotes synergism.

[4] = test system: HMCLs; test: Apoptosis assay (Annexin V-FITC flow cytometry); assay type: cell-based, human
Protocol: Cells were cultured for 48 h in the presence of indicated concentrations of compounds, harvested and washed, and incubated with Annexin V-FITC (BD Biosciences) and Propidium Iodide for 15 min at room temperature in the dark. Apoptosis was measured by BD LSR II flow cytometry (BD Biosciences).

[5] = test system: caspase-3/7 activity in HMCLs; test: Caspase-Glo 3/7 luminescent assay; assay type: cell-based, human
Protocol: Caspase-3/7 activity assays were performed on the HMCLs using Caspase-Glo 3/7 luminescent assay kit according to manufacturer's instructions (Promega Madison, WI). Briefly, 1×10^6 cells/ ml were cultured in 6-well plates and treated with either CLF alone and/or combination for indicated times. After harvesting, cells were washed twice with cold PBS and resuspended with Caspase-Glo 3/7 reagents. Reactions were incubated for 1 h at 37° C., and luminescence was determined using Synergy 2 Microplate Reader (Biotek). Cell death by apoptosis was also measured by immunoblotting analysis.

[6] = test system: apoptotic, ER stress, autophagy and survival proteins in myeloma cells; test: Western blotting (immunoblotting) pre- vs post-treatment; assay type: cell-based, human
Protocol: Cells treated with CLF, PI, or IMiD as single-agent or as a combination for 24 h were harvested, washed, and lysed using radioimmunoprecipitation assay (RIPA) lysis buffer containing 50 mM Tris-HCl, pH 7.5, 150 mM NaCl, 1% NP40, 5 mM EDTA, 1 mM DTT, phosphatase and […] cocktail (Sigma), and incubated on ice for 15 min. Samples were then centrifuged at 14,000 rpm at 4° C. for 30 mins. The supernatant was then aspirated, total protein was isolated and quantified using Pierce BCA Protein Assay Kit (Thermo Scientific). Samples were solubilized in SDS-PAGE sample buffer, and equal amounts of protein were loaded per lane of 10% SDS polyacrylamide gels and transferred onto PVDF membranes (Millipore; Billerica, MA). Membranes were blocked in TBS with SuperBlock® blocking buffer (Thermo Fisher). Membranes were then incubated with primary antibodies and secondary antibodies in TBS with 0.2% Tween® 20 and 2.5% BSA. Immunoreactivity was detected by Chemiluminescent HRP Substrate (Bio-Rad), and the exposed image was captured using a ChemiDoc MP Imaging System (Bio-Rad). Densitometry analysis was performed (in triplicates) using Image J software.

[7] = test system: RPMI8226P/VR cells; test: Superoxide levels (DHE flow cytometry); assay type: cell-based, human; details: 24 h
Protocol: Myeloma cells treated with CLF-based regimens for 24 h were incubated with 2.5 μM DHE (in RPMI) for 15 min in the dark at 37° C. Cells were then washed once with PBS, and red fluorescence was detected by flow cytometry.

[8] = test system: RPMI8226P/VR cells; test: Mitochondrial membrane potential (JC-1); assay type: cell-based, human; details: 24 h
Protocol: CLF-treated (24 h) cells were incubated with 5 μM JC-1 dye for 15 min in the dark at 37° C. and washed twice in PBS, and then analyzed for red and green fluorescence by flow cytometry.

[9] = test system: HMCLs (RPMI826 P/VR and U266 P/VR); test: Colony-forming cells (CFCs) assay (Methocult); assay type: cell-based, human
Protocol: Colony formation potential of untreated and drug-treated HMCLs was accessed using Methylcellulose-based assay according to manufacturer's instructions (Methocult, Stem Cell Technologies). Briefly, myeloma cells were treated with either CLF alone or in combination with PI for the indicated time period. Following incubation, cells were harvested, washed with PBS, and methylcellulose-based media (Methocult) was added to cells pellets, and colonies were allowed to grow for 4 weeks in 6-well plates. Images were captured after 4 weeks with an inverted microscope (Olympus, 4×/20× lens with color camera), and cell colony numbers were counted by Image J software (NIH).

[10] = test system: ALDH+ myeloma cells; test: Aldefluor (ALDH) activity assay; assay type: cell-based, human; details: 24 h
Protocol: Aldehyde dehydrogenase (ALDH) activity was assessed using the Aldefluor™ assay kit according to the manufacturer's instructions (Stem Cell Technologies). Briefly, 1×10^6 myeloma cells were treated with CLF-based regimens for 24 h, harvested, and resuspended in 1 ml Aldefluor™ assay buffer containing the ALDH substrate BODIPY-aminoacetaldehyde (BAAA). Negative control samples were treated with 5 μl of diethylaminobenzaldehyde (DEAB) as an inhibitor of ALDH1 enzymatic activity. Cells were incubated for 30-45 min at 37° C., then washed twice, and suspended in Aldefluor™ assay buffer. The brightly fluorescent ALDH+ cells were detected by BD LSR II flowcytometry.

[11] = test system: RPMI8226P, RPMI8226VR, U266P, and U266VR cells; test: CFSE assay of quiescent CD138+ cells; assay type: cell-based, human; details: parental and clonally derived PI-resistant cells
Protocol: For assessing apoptosis in quiescent CD138+ cells, myeloma cells were first stained with carboxyfluorescein succinimidyl ester (CFSE; Invitrogen) for 30 min, then washed and resuspended in RPMI1640 medium and were incubated at 37° C. overnight. The next day, cells were treated and maintained further for 4 days with supplementation of the drugs every 48 h.

[12] = test system: Side population (SP) cells in PI-resistant HMCLs; test: Side population analysis (DyeCycle Violet); assay type: cell-based, human
Protocol: Side population cells were investigated using DyeCycle™ Violet (cell-permeable DNA binding) assays according to manufacturer's instructions (Thermofisher). […] After 96 h, cells were stained with 10 μM Vybrant™ DyeCycle™ Violet (DCV; Molecular Probes, Eugene, OR) for 90 min at 37° C. Samples incubated with 100 μM verapamil (Sigma-Aldrich) for 30 min were used as positive control. Following dye incubation, cells were washed twice with ice-cold PBS, chilled on ice, and immediately analyzed by flow cytometry.

[13] = test system: HMCLs and patient primary myeloma cells; test: Mass cytometry (CyTOF) single-cell proteomics; assay type: cell-based, human
Protocol: Mass cytometry (CyTOF) analysis is a single-cell proteomics methodology that combines flow cytometry and elemental mass spectrometry. Thirty-seven antibody targets directed against cell surface (neoplastic myeloma) and intracellular markers (immune tumor microenvironment) were utilized for immunophenotyping panels. The antibody markers and respective metal conjugates are described in Table 2. One to three million untreated or treated (for 24 h) HMCLs or primary human myeloma cells were used for CyTOF staining. Cells were stained with cisplatin (1:10,000 dilutions in RPMI1640 media without FBS) at 37° C. for 5 minutes, washed with media with 10% FBS, spun at 300×g, and incubated with media with 10% FBS for 15 min. This was followed by another wash, spin, and the pellet was resuspended in 1× Fix buffer for 10 minutes at room temperature. HMCL samples, along with lyophilized healthy human PBMC (Veri-Cells PBMC: control cells; BioLegend), were washed using Maxpar cell staining buffer (MCSB) (Fluidigm). A total of 16 μL of the surface antibody cocktail was added to each tube containing each cell suspension in 100 μL of MCSB and incubated for 30 minutes at room temperature. Cells were washed with MCSB to remove excess antibodies and stored overnight at −80° C. after methanol fixation. Cells were washed with MCSB and incubated with 20 μL of intracellular antibody cocktail for 30 minutes at room temperature, followed by wash and fixation with fresh 1.6% formaldehyde solution for 10 minutes at room temperature. Cells were washed with MCSB and resuspended in 1 ml of Cell-ID™ Intercalator solution (1:4000 dilution in permeabilization buffer, Maxper Fix, and Perm Buffer). All samples were barcoded using cell-ID™ 20-Plex Barcoding Kit (Fluidigm), which were then stained, washed with MSCB, and acquired as a single multiplexed sample using Maxpar Cell Acquisition solution contained calibration beads.
Samples were loaded onto a Helios CyTOF system (Fluidigm) using an attached autosampler and were acquired at a rate of 200-400 events per second. Data were collected as .FCS files using the CyTOF Software (Version 6.7.1014, Fluidigm). After acquisition, intrafile signal drift was normalized to the acquired calibration bead signal using the CyTOF Software.
For CyTOF data analysis, Cytobank software version 7.3.0 (Santa Clara, CA) was used for cleanup of cell debris, removal of doublets and dead cells, and analysis of cleaned fcs files. Clustering, dimensionality reduction (to 10,000 events per file), and the visualization of cell population cluster map were performed by t-SNE. Relative marker intensities and cluster abundances per sample were visualized by a heatmap.

[14] = cited from earlier work
[15] = HMCLs and patient-derived primary cells, irrespective of PI- or IMiD-resistance

## CC(C)/N=c1\cc2n(-c3ccc(Cl)cc3)c3ccccc3nc-2cc1Nc1ccc(Cl)cc1 [CLF, clofazimine]
[1]; Homo sapiens, 48 h, panel of sensitive, innate and clonally-derived resistant HMCLs
  pIC50: 4.69 to 6.70
[1]
  anti-myeloma potency compared with other PPARg agonists (rosiglitazone, pioglitazone): most potent among all the PPARg agonists tested
[2]; ex vivo, patients n=12, read-out: maximum EC50
  pEC50: 4.82
[2]; ex vivo, patients n=12, read-out: median EC50
  pEC50: 5.62
[2]; ex vivo, patients n=12, read-out: minimum EC50
  pEC50: 5.98
[2]; patients n=12, range, read-out: ex vivo CLF EC50 values
  pEC50: 4.82 to 6.00
[3]
  therapeutic index / amount of PI/IMiD required (dose reduction index, predicted decrease in IC50): decreased the amount of PI/IMiD required to achieve effective responses
[4]; CLF alone
  apoptosis (annexin V staining): significant apoptosis
[4]; in combination with 15 nm ixazomib
  apoptosis (annexin V staining): significant apoptosis
[5]
  caspase-3 activity (Caspase 3/7 assay): induced caspase-3 activity
[6]; IRE1, PERK, ATF6, mRNA sequencing, IPA and Western blotting
  ER stress pathway and autophagy proteins: induces the proteins involved ER stress pathway
[6]; Western blotting
  anti-apoptotic/survival markers and Bax expression: decrease in the anti-apoptotic/survival markers Bcl2, Mcl-1 and increase in Bax expression
[6]; caspase-3, 8, 9
  caspase activation (Western blotting): activated caspase-3 and 9 but not 8
[6]; myeloma, FIG. 3D densitometry
  STAT and HIF-1α expression: downregulation of STATS and HIF-1α
[7]
  cellular superoxide anions (DHE): induction of cellular superoxide anions
[8]
  mitochondrial membrane potential (JC-1): mitochondrial membrane depolarization
[9]; PI-resistant lines (RPMI826 P/VR and U266 P/VR)
  colony formation: significantly reduced colony formation
[9]; compared to control or ixazomib
  colony number and colony size: significantly reduced colony number as well as colony size
[10]
  ALDH activity: significant decrease in ALDH activity
[11]
  apoptosis in CFSEbright and CFSEdim cells: caused apoptosis in both CFSEbright and CFSEdim cells
  number of CFSE-bright (non-dividing) cells: significantly reduced their number
[12]
  side population (SP): reduced SP
[13]; [15]
  cleaved caspase-3 levels (CyTOF): elevated cleaved caspase-3 levels
  marker expression (CyTOF): downregulation of pS6, IRF4, pCREB, pRB, IKZF1
[13]; all cell lines and primary samples, cluster enriched for cells exposed to high dose CLF
  cleaved caspase levels (CyTOF): elevated cleaved caspase levels
[13]; pre- vs post-treatment
  myeloma survival markers incl. IRF4, IKZF1, IKZF3, CD229, CD27, pS6, pERK, IkBa (CyTOF and immunoblotting): shifts in a majority of these markers
[14]; corresponds to human plasma Cmax
  safe dose range: 0.84 to 8.4 µM
[14]; human plasma
  human plasma Cmax: 400 to 4000 ng/mL

Reference: patent US20240075027A1, “REPOSITIONING THE ANTI-LEPROSY DRUG CLOFAZIMINE AGAINST DRUG-RESISTANT MYELOMA AND PUTATIVE STEM-CELL SUBCLONES” (Auburn University, priority 2022, published 2024)
